Reference: article PMC5725709, “PufQ regulates porphyrin flux at the haem/bacteriochlorophyll branchpoint of tetrapyrrole biosynthesis via interactions with ferrochelatase” (Molecular Microbiology, 2017)

Target: T1, FeCH (ferrochelatase) (Cereibacter sphaeroides, UniProt Q3IYK5, Y58H)
T1 construct: gene HemH; His-tagged, pET14b, E. coli Rosetta pLysS
Assay: spectrophotometric ferrochelatase assay (DIX consumption at […] nm, isosbestic reference […] nm)
Type: biochemical
Settings: 1 µM FeCH, 30 µM DIX, 100 µM CoCl2, 25 mM Tris pH 7.4, 0.15% Tween 80; active, substantially lower than wild type

T1 sequence (Q3IYK5 entry or part of it Y58H): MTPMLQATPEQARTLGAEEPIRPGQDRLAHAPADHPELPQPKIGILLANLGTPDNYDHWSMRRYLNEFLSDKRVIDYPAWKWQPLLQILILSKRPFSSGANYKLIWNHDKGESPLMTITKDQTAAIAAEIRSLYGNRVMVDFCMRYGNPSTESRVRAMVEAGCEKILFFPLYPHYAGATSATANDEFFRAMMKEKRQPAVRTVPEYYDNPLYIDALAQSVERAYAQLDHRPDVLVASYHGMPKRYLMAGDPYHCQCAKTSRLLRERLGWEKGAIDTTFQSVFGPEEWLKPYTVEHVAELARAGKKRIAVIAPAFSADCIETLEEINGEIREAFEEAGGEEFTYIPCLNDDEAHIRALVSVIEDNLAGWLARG

In the case of `CC1=C(CCC(=O)O)c2cc3nc(cc4[nH]c(cc4C)cc4[nH]c(cc1n2)cc4C)C(C)=C3CCC(=O)O` [deuteroporphyrin IX], the “spectrophotometric ferrochelatase assay (DIX consumption at 496 nm, isosbestic r)” value is reported as “the ΔpufQ PSvar version of the FeCH protein is active”.
